Measurements as given in ChEMBL document CHEMBL1201862, “PubChem BioAssay data set” (2004).
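Values below derive from 48-hour exposures of cells grown in 96-well plates, with endpoints linearly interpolated between the two concentrations bracketing the appropriate inhibition level. At the GI50, growth is halved.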 Active and inactive are the calls of the source. No stated cut-off is given here; in the data, active = GI50 up to about 1.1 µM and inactive = higher.

How the values were obtained:
Test in all cases: NCI-60 cell line screen, 48 h
KM-20L2 = tested on: KM-20L2
DMS-114 = tested on: DMS-114
DLD-1 = tested on: DLD-1
SNB-78 = tested on: SNB-78
M19-MEL = tested on: M19-MEL
HOP-18 = tested on: HOP-18
RXF 631 = tested on: RXF 631
XF498 = tested on: XF498

Measured: GI50

O=S(=O)(/C=C/c1ccc(F)cc1)Cc1ccc(CS(=O)(=O)/C=C/c2ccc(F)cc2)cc1
inactive: KM-20L2 > 100 µM | DMS-114 > 100 µM | DLD-1 > 100 µM | SNB-78 > 100 µM | M19-MEL > 100 µM | HOP-18 > 100 µM | RXF 631 > 100 µM | XF498 > 100 µM

O=C(CC(=O)N1N=C(c2ccccc2)C(/N=N/c2ccc(Cl)cc2)C1=O)Nc1ccccc1Cl (configuration not stated)
inactive: KM-20L2 80.9 µM | DMS-114 90.6 µM | DLD-1 30.3 µM | SNB-78 64 µM | M19-MEL 51.3 µM | HOP-18 24.2 µM | RXF 631 40.6 µM | XF498 35.7 µM

COC(=O)C(C(=O)C(N)=O)c1csc(-n2nc(-c3ccccc3)cc2-c2ccccc2)n1 (configuration not stated)
inactive: KM-20L2 27.4 µM | DMS-114 12.8 µM | DLD-1 > 31.6 µM | SNB-78 > 31.6 µM | M19-MEL > 31.6 µM | HOP-18 15.6 µM | RXF 631 > 10 µM | XF498 25.2 µM

COC(=O)c1ccccc1NC(=O)C(=O)Cc1nc2c3c(ccc2nc1O)C(=O)c1ccccc1C3=O
inactive: KM-20L2 32.7 µM | DMS-114 7.62 µM | DLD-1 6.35 µM | SNB-78 34 µM | M19-MEL 6.56 µM | HOP-18 > 100 µM | RXF 631 25.2 µM | XF498 26.7 µM

Cc1ccc(-c2nc3ccccc3c(=O)n2NC2OC(CO)C(O)C(O)C2O)cc1 (configuration not stated)
inactive: KM-20L2 > 100 µM | DMS-114 > 100 µM | SNB-78 > 100 µM | M19-MEL > 100 µM | HOP-18 > 100 µM | RXF 631 > 100 µM | XF498 > 100 µM

NC(CCC(=O)NC(CSSCCCCS(=O)O)C(=O)NCC(=O)O)C(=O)O (configuration not stated)
inactive: KM-20L2 > 100 µM | DMS-114 > 100 µM | DLD-1 > 100 µM | SNB-78 > 100 µM | M19-MEL > 100 µM | HOP-18 > 100 µM | RXF 631 > 100 µM | XF498 > 100 µM
